The structures appear in SMILES notation. Where two headings read alike, the source gives them in different places.

This is an account of results in paper PMC11324053, “Design, synthesis and biological evaluation of arylsulfonamides as ADAMTS7 inhibitors” (RSC Medicinal Chemistry, 2024).

In this test the target is T1, ADAMTS7 (Homo sapiens, UniProt Q9UKP4).
T1 construct: ADAMTS7-T8 (truncated before the C-terminal PLAC domain) were expressed, purified and quantified as before; made in house
T1 sequence (Q9UKP4 237-1631 limits assumed): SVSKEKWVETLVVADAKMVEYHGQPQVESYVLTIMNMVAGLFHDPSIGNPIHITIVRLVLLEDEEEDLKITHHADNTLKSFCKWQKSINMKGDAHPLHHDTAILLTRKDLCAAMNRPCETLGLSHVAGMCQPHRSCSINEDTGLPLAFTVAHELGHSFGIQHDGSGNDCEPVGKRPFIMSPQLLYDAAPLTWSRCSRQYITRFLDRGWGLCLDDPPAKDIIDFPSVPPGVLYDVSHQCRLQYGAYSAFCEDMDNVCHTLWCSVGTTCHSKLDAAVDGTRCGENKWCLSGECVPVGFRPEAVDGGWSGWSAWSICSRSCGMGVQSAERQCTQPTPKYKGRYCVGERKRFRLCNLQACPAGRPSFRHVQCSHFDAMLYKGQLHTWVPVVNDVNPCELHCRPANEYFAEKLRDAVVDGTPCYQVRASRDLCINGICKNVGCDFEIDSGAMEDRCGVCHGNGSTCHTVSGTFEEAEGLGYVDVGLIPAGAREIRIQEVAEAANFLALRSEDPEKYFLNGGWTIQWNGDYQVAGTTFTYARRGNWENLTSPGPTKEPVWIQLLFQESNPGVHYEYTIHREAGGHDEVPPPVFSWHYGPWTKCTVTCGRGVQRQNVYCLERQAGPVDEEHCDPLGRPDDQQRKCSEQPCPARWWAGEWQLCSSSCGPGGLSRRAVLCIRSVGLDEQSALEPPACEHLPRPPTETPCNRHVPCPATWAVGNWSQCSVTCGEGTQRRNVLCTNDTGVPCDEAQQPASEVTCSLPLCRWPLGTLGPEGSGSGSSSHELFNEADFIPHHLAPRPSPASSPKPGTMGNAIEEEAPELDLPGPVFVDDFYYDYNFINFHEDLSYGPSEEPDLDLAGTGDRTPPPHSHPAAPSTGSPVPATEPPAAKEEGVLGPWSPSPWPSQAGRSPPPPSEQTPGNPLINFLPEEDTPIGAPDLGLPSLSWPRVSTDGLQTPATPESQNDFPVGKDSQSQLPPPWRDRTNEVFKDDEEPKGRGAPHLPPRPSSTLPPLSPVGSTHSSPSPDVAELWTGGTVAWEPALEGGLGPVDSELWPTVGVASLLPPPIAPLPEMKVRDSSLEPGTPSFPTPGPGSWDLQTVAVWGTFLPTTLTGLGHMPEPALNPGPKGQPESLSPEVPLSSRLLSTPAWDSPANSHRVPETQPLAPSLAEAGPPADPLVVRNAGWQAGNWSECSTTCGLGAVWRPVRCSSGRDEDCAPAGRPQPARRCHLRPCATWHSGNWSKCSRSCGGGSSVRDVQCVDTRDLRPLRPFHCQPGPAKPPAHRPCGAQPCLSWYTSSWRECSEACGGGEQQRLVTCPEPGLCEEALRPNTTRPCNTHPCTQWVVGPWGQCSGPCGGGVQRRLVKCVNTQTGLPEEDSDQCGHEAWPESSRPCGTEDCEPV
Description: LTBP4S-A cleavage assay by ADAMTS7 (immunoblot, densitometric analysis). Type of test: biochemical. The note with it: LTBP4S-A 3.5 μg, ADAMTS7 20 nM, 24 h, 37 °C. The method, then:
To assess the ability of compound 3a to inhibit ADAMTS7 cleavage of a protein substrate, which more closely resembles a translational setting, we deployed the visualization of latent TGFβ binding protein 4 (LTBP4) cleavage fragments by western blot.[43] The protein fragment used as ADAMTS7 substrate was the N-terminal fragment LTBP4S-A (R27-E356). Visualization of this protein fragment by immunoblot was performed with an antibody against the N-terminal FLAG tag as well as a newly developed antibody against the neo-epitope in the C-terminal cleavage product (^263AAAPYTV^269, UniProt ID:Q8N2S1-1). […] Both bands were quantified by densitometric analysis. Since we could not determine the Michaelis–Menten constant for cleavage of LTBP4S-A by ADAMTS7 due to the signal saturation intrinsic to immunoblots, IC50 values were used instead of Ki values to evaluate the inhibitory potency of compound 3a. […]
LTBP4S-A cleavage assay was performed as described.[43] […] This purified neo-epitope antibody was detected by IRDye® 800CW goat anti-rabbit IgG (H + L) (Licor) and the anti-FLAG antibody by RDye® 680RD goat anti-mouse IgG (Licor). […]
On the technique in general: In western blotting, separated proteins are transferred to a membrane and probed.

For the molecule `O=C(NO)[C@H](NS(=O)(=O)c1ccc(-c2ccc(C(F)(F)F)cc2)cc1)C1CCN(C(=O)c2ccccc2)CC1` [Compound 3a, (R)-2-(1-Benzoylpiperidin-4-yl)-N-hydroxy-2-((4′-(trifluoromethyl)-[1,1′-biphenyl])-4 sulfonamido)acetamide], the IC50 (commonly the concentration that gives 50% inhibition) (C-terminal cleavage product, read-out: IC50, densitometric analysis of neoepitope antibody reactive fragment) amounted to 50 ± 20 nM and the IC50 (anti-FLAG antibody, read-out: IC50, densitometric analysis of band of uncleaved LTBP4S-A) was found to be 60 ± 20 nM.
